# Patent US20190212340A1, “AN ELISA-LIKE ASSAY FOR QUANTIFYING ENZYMATIC ACTIVITIES OF MONO-ADP-RIBOSYLTRANSFERASES” (University of Southern California, priority 2016, published 2019)
# Assays:
# PARP15 [1] = target: T1, PARP15 (Homo sapiens, UniProt Q460N3); experiment: MLISA inhibition of PARP15-catalyzed automodification (Experiment No. 2); format: biochemical; conditions: at concentrations up to 100 μM
# T1 construct: The catalytic domains of PARP15 (residue 481-678); His6 (N); Factor Xa cleavage site (IEGR) (N); made in house; host or cells: E. coli BL21 (DE3)
# T1 sequence (Q460N3 with tags, fused parts or gaps): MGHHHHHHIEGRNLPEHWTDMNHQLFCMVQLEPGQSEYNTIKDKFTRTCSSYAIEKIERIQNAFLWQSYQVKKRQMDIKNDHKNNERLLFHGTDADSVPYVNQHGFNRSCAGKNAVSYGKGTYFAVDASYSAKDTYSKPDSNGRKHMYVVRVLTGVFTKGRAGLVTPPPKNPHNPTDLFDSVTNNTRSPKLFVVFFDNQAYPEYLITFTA
# PARP15 [2] = target: T2, PARP15 (Homo sapiens, UniProt Q460N3); conditions: Karlberg et al., J. Biol. Chem. 2015; read-out: Km value of PARP15 reported previously; cited from earlier work
# T2 sequence (Q460N3 1-678): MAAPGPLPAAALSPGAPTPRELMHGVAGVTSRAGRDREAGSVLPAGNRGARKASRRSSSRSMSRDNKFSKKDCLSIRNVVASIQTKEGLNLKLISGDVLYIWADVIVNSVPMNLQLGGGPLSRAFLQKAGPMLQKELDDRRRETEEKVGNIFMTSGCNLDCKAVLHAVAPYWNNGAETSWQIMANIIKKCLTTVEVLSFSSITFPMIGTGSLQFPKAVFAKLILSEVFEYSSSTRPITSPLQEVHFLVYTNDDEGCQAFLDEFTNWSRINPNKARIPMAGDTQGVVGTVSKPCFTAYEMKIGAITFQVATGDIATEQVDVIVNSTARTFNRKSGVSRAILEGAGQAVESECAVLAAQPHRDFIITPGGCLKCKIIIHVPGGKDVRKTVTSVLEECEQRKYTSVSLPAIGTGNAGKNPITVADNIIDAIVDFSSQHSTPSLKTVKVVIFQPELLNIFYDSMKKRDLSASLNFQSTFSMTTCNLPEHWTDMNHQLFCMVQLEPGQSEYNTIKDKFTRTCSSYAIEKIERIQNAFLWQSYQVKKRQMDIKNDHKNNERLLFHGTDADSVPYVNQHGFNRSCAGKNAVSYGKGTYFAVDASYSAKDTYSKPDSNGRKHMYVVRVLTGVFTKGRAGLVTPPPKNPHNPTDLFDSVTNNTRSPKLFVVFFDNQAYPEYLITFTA
# PARP15 [3] = target: T1, PARP15; experiment: M2-based ELISA plate inhibition assay, PARP15 (Experiment No. 1); format: biochemical; conditions: 500 nM PARP15, 500 μM NAD+, inhibitors at 1, 10 and 100 μM, 2 h
# Procedure: The general scheme of ELISA assay is illustrated in FIG. 1. PARP automodification reactions (100 μL) were conducted in 96-wells plate together with the coating process for 2 hours at room temperature. After five times of 200 μL PBST washes (0.1% v/v Tween 20 in PBS buffer, pH 7.4) per well the plates were blocked with 3% BSA dissolved in PBS buffer for 2 hours under room temperature followed by five washes of 200 μL PBST per well. The plates were incubated for 1 hour upon addition of 100 μL of 0.1 μM Macrodomain 2 and then washed five times with 200 μL PBST per well. […] The fluorescence signal was developed by addition of 75 μL QuantaBlu Fluorogenic Peroxidase Substrate and recorded by Synergy H1 Multi-Mode Reader (BioTek, VT). Kinetic parameters were calculated using nonlinear regression Michaelis-Menten model using GraphPad Prism (GraphPad Software). […]
# 96-well ELISA plates were coated with reactions in triplicates consisting of PARP enzymes (PARP14: 1 μM; PARP15: 500 nM) with various inhibitors at different concentrations (1, 10 and 100 μM) in addition to 500 μM of NAD^+ in Reaction Buffer (50 mM Tris-HCl, pH 7.4, 2 mM dTT). […] To control for any potential inhibition activity related to DMSO, wells containing 1% DMSO were analyzed in triplicates alongside with no inhibitor control wells and 100 μM control inhibitor wells.
Compound,inhibition effects on PARP15 activity (PARP15 [1]),also measured
O=c1[nH]c(-c2ccc(C(F)(F)F)cc2)nc2c1CSCC2 [XAV939],no significant inhibition effects,–
Nc1ncnc2[nH]cnc12 [Adenine],no significant inhibition effects,–
"NC(=O)c1ccc[n+]([C@@H]2O[C@H](COP(=O)([O-])OP(=O)(O)OC[C@H]3O[C@@H](n4cnc5c(N)ncnc54)[C@H](O)[C@@H]3O)[C@@H](O)[C@H]2O)c1 [NAD^+, Nicotinamide adenine dinucleotide]",–,Km (PARP15 [2]): 5.8 ± 1.9 µM
CN(C)c1ccc(O)c2c1C[C@H]1C[C@H]3[C@H](N(C)C)C(O)=C(C(N)=O)C(=O)[C@@]3(O)C(O)=C1C2=O [Minocin],no significant inhibition effects,–
O=C(c1cc(Cc2n[nH]c(=O)c3ccccc23)ccc1F)N1CCN(C(=O)C2CC2)CC1 [Olaparib],–,inhibition of PARP15 (fluorescence intensity) (PARP15 [3]): better inhibitory effect at 100 μM but it is less potent comparing to other inhibitor
